Common to all, as to format: in vivo
For experiment [1], the system named is adult mosquitoes Culex quinquefasciatus strain P00. Put plainly: Culex quinquefasciatus test (CULXFA surface treatment & contact assay). To be noted: surface concentration 20 mg/m^2, 30 minutes exposure, 24 hours after contact, read-out: efficacy (mortality). The method in brief:
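Compound dissolved at 2 mg/ml in acetone with 2000 ppm rapeseed oil methyl ester, pipetted onto glazed tile and acetone evaporated. Adult Culex quinquefasciatus strain P00 exposed to dried surface for 30 minutes; percent mortality scored 24 hours after contact.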

In experiment [2] the test system is larvae of the southern green stink bug (Nezara viridula). Put plainly: Nezara viridula spray test. To be noted: 96 h, 100 g/ha, after 4 days, barley plants. The method in brief:
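Percent mortality of southern green stink bug larvae was recorded at day 4, with 100% meaning all dead. The larvae were placed on barley sprayed with the test solution. That solution was prepared from acetone/dimethylformamide concentrate diluted in emulsifier-containing water (1000 ppm).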

For experiment [3], the system named is adult cat fleas (Ctenocephalides felis). The experiment can be described thus: Ctenocephalides felis in-vitro contact test, adult cat flea. To be noted: 5 μg/cm^2 (=500 g/ha), after 48 hours, read-out: efficacy (fleas dead or moribund). The method in brief: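 Compound in acetone coated onto inner walls of glass tubes (900 ppm solution giving 5 μg/cm^2); after drying, 5-10 adult fleas added and kept at room temperature. At 48 h, fleas placed on 45-50 °C plate ≤5 min; immotile or uncoordinated ones scored dead/moribund; efficacy as % dead/moribund.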

The subject of experiment [4] is adult brown dog ticks (Rhipicephalus sanguineus). The experiment can be described thus: Rhipicephalus sanguineus in-vitro contact test, adult brown dog ticks. As to conditions: 5 μg/cm^2 (=500 g/ha), after 48 hours, read-out: efficacy (ticks dead or moribund). The protocol:
Rhipicephalus sanguineus—In-Vitro Contact Tests with Adult Brown Dog Ticks
9 mg compound is solved in 1 mL acetone and diluted with acetone to the desired concentration. 250 μL of the test solution is filled in 25 mL glass test tubes and homogeneously distributed on the inner walls by rotation and tilting on a shaking device (2 h at 30 rpm). With a compound concentration of 900 ppm, an inner surface of 44.7 cm^2 and a homogeneous distribution, a dose of 5 μg/cm^2 is achieved.
After the solvent has evaporated, each test tube is filled with 5-10 adult brown dog ticks (Rhipicephalus sanguineus), closed with a perforated lid and incubated in a lying position at room temperature and relative humidity. After 48 hours efficacy is determined. The ticks are patted on the ground of the tubes and are incubated on a heating plate at 45-50° C. for at most 5 minutes Immotile or uncoordinated moving ticks, which are not able to escape the heat by climbing upwards, are marked as dead or moribund.
An efficacy of 100% means all ticks are dead or moribund; 0% means no ticks are dead or moribund.

For experiment [5], the system named is fall armyworm larvae (Spodoptera frugiperda). The experiment can be described thus: Spodoptera frugiperda spray test. To be noted: in Zea mays, 168 h. A digest of the protocol:
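Maize leaf sections were sprayed with compound in acetone/dimethylformamide diluted in water with 1000 ppm emulsifier, dried, then infested with larvae. Mortality in % was scored after 7 days, 100% meaning all caterpillars killed.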

In experiment [6] the test system is adult flies Musca domestica strain WHO-N. Put plainly: Musca domestica test (MUSCDO surface treatment & contact assay). As to conditions: surface concentration 4 mg/m^2, 30 minutes exposure, 24 hours after contact, read-out: efficacy (mortality). A digest of the protocol:
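Compound dissolved in acetone (2 mg/ml) with 2000 ppm rapeseed oil methyl ester and dried onto glazed tiles. Adult WHO-N strain flies were held on the treated surface for 30 minutes, with % mortality scored 24 hours after contact.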

Experiment [7] deals with green peach aphid (Myzus persicae). The experiment can be described thus: Myzus persicae oral test. To be noted: 120 h, 4 ppm, after 5 days. The protocol: • Solvent: 100 parts by weight acetone
To produce a suitable preparation of active compound, 1 part by weight of active compound is mixed with the stated amount of solvent, and the concentrate is diluted with water to the desired concentration.
50 μL compound solution is filled in microtiter plates and 150 μL IPL41 insect medium (33%+15% sugar) is added to obtain a total volume of 200 μL per well. Afterwards the plates are sealed with parafilm through which a mixed population of the green peach aphid (Myzus persicae) can suck on the compound preparation.
After 5 days mortality in % is determined. 100% means all aphids have been killed and 0% means none of the aphids have been killed.

The subject of experiment [8] is adult unfed cat fleas (Ctenocephalides felis). Put plainly: Ctenocephalides felis oral test. To be noted: 48 h, 100 ppm in cattle blood, after 2 days. A digest of the protocol:
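About 20 adult unfed fleas feed through parafilm on cattle blood spiked with compound (DMSO stock diluted in blood); blood held at 37° C., fleas at room temperature. Mortality (%) scored after 2 days, 100% meaning all fleas killed.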

Structures are written as SMILES.

One may read the mortality as the percentage killed. On to `C[C@H](NC(=O)c1cc(Cl)cc(OS(C)(=O)=O)c1)c1ncnn1-c1ccc(C#N)cn1` [Example I-46], for which the mortality at 20 mg/m2 in experiment [1] was 80 to 100%. In addition, the mortality at 100 g/ha in experiment [2] and in experiment [5] was 100% in each case. Besides, the pest or weed control at 5 µg/cm2, 5 µg/cm2 in experiment [3] and in experiment [4] was 100% throughout. Also, the mortality at 4 mg/m2 in experiment [6] lay within 80 to 100%. For the same molecule, the mortality at 4 ppm in experiment [7] was 100%. This molecule also displayed a mortality at 100 ppm in experiment [8] of 100%.

(Values after patent US12653190B2, “Heteroaryl-triazole compounds as pesticides” (Bayer Aktiengesellschaft, priority 2020, dated 2026).)
